Experimental findings from patent US11639350B2, “Heteroaryldihydropyrimidine derivatives and methods of treating hepatitis B infections” (Janssen Pharmaceutica NV, priority 2018, dated 2023) are described below.

Molecules are shown by their SMILES. Like-named read-outs stand apart in the source and are kept apart here.

One data set concerns HBV. The data set can be described thus: HBV inhibitory activity: HBV DNA in the culture medium of HepG2.2.15 cells by q-PCR. The format is cell-based. Particulars: HepG2.2.15 cells, 6 days of compound treatment, HBV DNA in culture medium by q-PCR, highest concentration 10 μM, read-out: EC50. The method in brief:
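Supernatant HBV DNA quantified by q-PCR after a 6-day compound exposure, with one mid-course medium change, of HepG2.2.15 cells (stably integrated HBV; 40,000 per well, 2% FBS). Eight-point 3-fold series topped at 10 μM for antiviral EC50; separate plates of 5,000 cells per well with 100 μM top give CC50.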

A short description of data set [1]: Cytotoxicity determination in HepG2.2.15 cells (CCK-8). The note with it: human, 6 days of compound treatment, CCK-8, highest concentration 100 μM. The format is cell-based. The method, boiled down: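 CC50 is from CCK-8 absorbance (450 nm, 630 nm reference) after 2.5 h with reagent. Before that, compounds were applied for six days, top concentration 100 μM, eight threefold dilutions, one mid-course medium change, to stably HBV-integrated HepG2.2.15 cells plated at 5,000/well in 2% FBS.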

Where [2] appears, read: Hepatitis B virus, HepG2.2.15, 144 h.

Regarding `COC(=O)C1=C([C@H]2C[C@H](NS(C)(=O)=O)C2)NC(c2nccs2)=NC1c1ccc(F)cc1Cl` (single isomer, unassigned) [Compound 206B, (trans)-Methyl 4-(2-chloro-4-fluorophenyl)-6-(3-(methylsulfonamido)cyclobutyl)-2-(thiazol-2-yl)-1,4-dihydropyrimidine-5-carboxylate], the concentration giving a half-maximal response (EC50) with HBV (setting [2]) was 108 nM. In addition, in data set [1], the midpoint of cytotoxicity, the CC50 at 6 days, lay at 26100 nM.
On to `COC(=O)C1=C(C2CN(S(=O)(=O)c3ccccc3)C2)NC(c2nccs2)=NC1c1ccc(F)cc1Cl` (stereo not shown) [Compound 130, 6-(1-Benzenesulfonyl-azetidin-3-yl)-4-(2-chloro-4-fluoro-phenyl)-2-thiazol-2-yl-1,4-dihydro-pyrimidine-5-carboxylic acid methyl ester], for which the EC50 with HBV (setting [2]) is 550 nM. Further, the CC50 at 6 days in data set [1] is over 10000 nM.
The like results for `COC(=O)C1=C(C2CCN(S(=O)(=O)[C@H]3C[C@H](C(=O)O)C3)CC2)NC(c2nccs2)=NC1c1ccc(F)cc1Cl` (relative stereo) [Compound 285A, trans-3-((4-(6-(2-Chloro-4-fluorophenyl)-5-(methoxycarbonyl)-2-(thiazol-2-yl)-3,6-dihydropyrimidin-4-yl)piperidin-1-yl)sulfonyl)cyclobutane-carboxylic Acid] were, in that order, 24 nM and 67200 nM.
For `CCOC(=O)C1=C([C@H]2CC[C@H](C(=O)NC)CC2)NC(c2nccs2)=NC1c1ccc(F)cc1Cl` (single isomer, unassigned) [Compound 132A, trans-Ethyl 4-(2-chloro-4-fluorophenyl)-6-(4-(methylcarbamoyl)-cyclohexyl)-2-(thiazol-2-yl)-1,4-dihydropyrimidine-5-carboxylate] the same measures were 472 nM and 23900 nM.
Consider `COC(=O)CCS(=O)(=O)N1CCC(C2=C(C(=O)OC)C(c3cccc(F)c3Cl)N=C(c3nccs3)N2)CC1` (single isomer, unassigned) [Compound 113Y, 4-(2-Chloro-3-fluoro-phenyl)-6-[1-(2-methoxycarbonyl-ethane-sulfonyl)-piperidin-4-yl]-2-thiazol-2-yl-1,4-dihydro-pyrimidine-5-carboxylic Acid Methyl Ester], for which the EC50 in the data set with HBV (setting [2]) stood at 966 nM. For the same compound, the CC50 at 6 days in data set [1] was determined as 11800 nM.
On to `COC(=O)C1=C(C2CCN(S(=O)(=O)CC34CC(C(=O)O)(C3)C4)CC2)NC(c2nccs2)=NC1c1ccc(F)c(F)c1Cl` (stereo not shown) [Compound 456, 3-(((4-(6-(2-Chloro-3,4-difluorophenyl)-5-(methoxycarbonyl)-2-(thiazol-2-yl)-3,6-dihydropyrimidin-4-yl)piperidin-1-yl)sulfonyl)methyl)bicyclo[1.1.1]pentane-1-carboxylic Acid], for which the EC50 with HBV (setting [2]) came out at 43 nM. Half-maximal cytotoxicity in data set [1] (CC50 at 6 days) was put at 19500 nM.
On to `COC(=O)C1=C(C2CCN(S(=O)(=O)CC(=O)O)CC2)NC(c2nccs2)=NC1c1ccc(F)cc1Cl` (stereo not shown) [Compound 107, 2-((4-(6-(2-Chloro-4-fluorophenyl)-5-(methoxycarbonyl)-2-(thiazol-2-yl)-3,6-dihydropyrimidin-4-yl)piperidin-1-yl)sulfonyl)acetic Acid], for which the half-maximal effective concentration (EC50) in the data set with HBV (setting [2]) worked out at 248 nM. In data set [1], this compound yielded a CC50 at 6 days of 51400 nM.
In the case of `COC(=O)C1=C(C2CCN(S(=O)(=O)[C@H]3C[C@H](C(=O)O)C3)C2)NC(c2nccs2)=NC1c1ccc(F)cc1Cl` (relative stereo) [Compound 367A, (trans)-3-((3-(6-(2-chloro-4-fluorophenyl)-5-(methoxycarbonyl)-2-(thiazol-2-yl)-3,6-dihydropyrimidin-4-yl)pyrrolidin-1-yl)sulfonyl)cyclobutanecarboxylic Acid], the half-maximal effective concentration (EC50) with HBV (setting [2]) was found to be 303 nM. In data set [1], this compound displayed a cytotoxic concentration (CC50) at 6 days of 33400 nM.
For `COC(=O)C1=C(C2CCN(S(=O)(=O)[C@H]3C[C@H](C(=O)O)C3)CC2)NC(c2nccs2)=NC1c1ccc(F)c(F)c1C` (stereo partly drawn) [Compound 309C, (trans)-3-((4-(6-(3,4-Difluoro-2-methylphenyl)-5-(methoxycarbonyl)-2-(thiazol-2-yl)-3,6-dihydropyrimidin-4-yl)piperidin-1-yl)sulfonyl)cyclobutanecarboxylic Acid], in the data set with HBV (setting [2]), the 50% effective concentration (EC50) was determined as 47 nM. In data set [1], this compound showed a 50% cytotoxic concentration (CC50) at 6 days of 36200 nM.
As to `COC(=O)C1=C(C2CCN(S(=O)(=O)c3cnn(C)c3)CC2)NC(c2nccs2)=NC1c1ccc(F)cc1Cl` (stereo not shown) [Compound 165, Methyl 4-(2-chloro-4-fluorophenyl)-6-(1-((1-methyl-1H-pyrazol-4-yl)sulfonyl)piperidin-4-yl)-2-(thiazol-2-yl)-1,4-dihydropyrimidine-5-carboxylate], the 50% effective concentration (EC50) with HBV (setting [2]) came out at 12 nM. Also, the CC50 at 6 days in data set [1] was over 100000 nM.
For `COC(=O)C1=C(C2CCN(S(=O)(=O)[C@H]3C[C@H](C(=O)O)C3)CC2)NC(c2nccs2)=NC1c1ccc(F)c(F)c1Cl` (single isomer, unassigned) [Compound 232B, (trans)-3-((4-(6-(2-Chloro-3,4-difluorophenyl)-5-(methoxycarbonyl)-2-(thiazol-2-yl)-3,6-dihydropyrimidin-4-yl)piperidin-1-yl)sulfonyl)cyclobutanecarboxylic Acid], in the data set on HBV (setting [2]), the EC50 stood at 57 nM. In addition, the CC50 at 6 days in data set [1] was found to be 60000 nM.
In the case of `CCOC(=O)C1=C(C2CCN(S(=O)(=O)[C@H]3C[C@H](C(=O)O)C3)CC2)NC(c2nccs2)=NC1c1ccc(F)c(F)c1Br` (stereo partly drawn) [Compound 199A, (trans)-3-((4-(6-(2-bromo-3,4-difluorophenyl)-5-(ethoxycarbonyl)-2-(thiazol-2-yl)-3,6-dihydropyrimidin-4-yl)piperidin-1-yl)sulfonyl)cyclobutanecarboxylic Acid], the concentration giving a half-maximal response (EC50) with HBV (setting [2]) amounted to 56 nM. This compound also returned a CC50 at 6 days in data set [1] of 35800 nM.
For `COC(=O)C1=C(C2CCN(S(=O)(=O)C3COC3)CC2)NC(c2nccs2)=NC1c1ccc(F)cc1Cl` (single isomer, unassigned) [Compound 110B, Methyl 4-(2-chloro-4-fluorophenyl)-6-(1-(oxetan-3-ylsulfonyl)-piperidin-4-yl)-2-(thiazol-2-yl)-1,4-dihydropyrimidine-5-carboxylate] the same measures were 798 nM and over 10000 nM.
In the case of `COC(=O)C1=C(C2CCN(S(=O)(=O)c3cn(C)cn3)CC2)NC(c2nccs2)=NC1c1ccc(F)cc1Cl` (stereo not shown) [Compound 201A, Methyl 4-(2-chloro-4-fluorophenyl)-6-(1-((1-methyl-1H-imidazol-4-yl)sulfonyl)piperidin-4-yl)-2-(thiazol-2-yl)-1,4-dihydropyrimidine-5-carboxylate], the EC50 in the data set with HBV (setting [2]) came to 53 nM. In data set [1], this compound registered a cytotoxic concentration (CC50) at 6 days of 15700 nM.
As to `COC(=O)C1=C(C2CCN(S(=O)(=O)CCC(=O)O)CC2)NC(c2nccs2)=NC1c1ccc(F)c(F)c1Cl` (stereo not shown) [Compound 230, 3-((4-(6-(2-Chloro-3,4-difluorophenyl)-5-(methoxycarbonyl)-2-(thiazol-2-yl)-3,6-dihydropyrimidin-4-yl)piperidin-1-yl)sulfonyl)propanoic Acid], the EC50 with HBV (setting [2]) came to 146 nM. The compound also came in with a CC50 at 6 days in data set [1] of over 100000 nM.
As for `CCOC(=O)C1=C(C2CCN(S(=O)(=O)[C@H]3C[C@H](C(=O)O)C3)CC2)NC(c2nccs2)=NC1c1ccc(F)c(F)c1C` (single isomer, unassigned) [Compound 343A, (trans)-3-((4-(6-(3,4-difluoro-2-methylphenyl)-5-(ethoxycarbonyl)-2-(thiazol-2-yl)-3,6-dihydropyrimidin-4-yl)piperidin-1-yl)sulfonyl)cyclobutanecarboxylic Acid], the half-maximal effective concentration (EC50) with HBV worked out at 89 nM. This compound came in with a CC50 at 6 days in data set [1] of 40800 nM.
Consider `COC(=O)C1=C([C@H]2CC[C@H](N(CCO)CC(F)(F)F)CC2)NC(c2nccs2)=NC1c1ccc(F)c(F)c1Cl` (single isomer, unassigned) [Compound 434B, (trans)-Methyl 4-(2-chloro-3,4-difluorophenyl)-6-(4-((2-hydroxyethyl)(2,2,2-trifluoroethyl)amino)cyclohexyl)-2-(thiazol-2-yl)-1,4-dihydropyrimidine-5-carboxylate], for which, in the data set on HBV (setting [2]), the EC50 was 128 nM. Besides, the CC50 at 6 days in data set [1] came out at 6800 nM.
For `CCOC(=O)C1=C([C@@H]2CCN(S(C)(=O)=O)[C@@H](CO)C2)NC(c2nccs2)=NC1c1ccc(F)cc1Cl` (single isomer, unassigned) [Compound 379C, ethyl 4-(2-chloro-4-fluorophenyl)-6-((trans)-2-(hydroxymethyl)-1-(methylsulfonyl)piperidin-4-yl)-2-(thiazol-2-yl)-1,4-dihydropyrimidine-5-carboxylate], the half-maximal effective concentration (EC50) in the data set with HBV (setting [2]) is 55 nM. Half-maximal cytotoxicity in data set [1] (CC50 at 6 days) was put at 32600 nM.
Regarding `COC(=O)C1=C(C2CCN(S(=O)(=O)[C@H]3C[C@H](C(=O)O)C3)CC2)NC(c2nccs2)=NC1c1cccc(F)c1Cl` (stereo partly drawn) [Compound 331C, (trans)-3-((4-(6-(2-Chloro-3-fluorophenyl)-5-(methoxycarbonyl)-2-(thiazol-2-yl)-3,6-dihydropyrimidin-4-yl)piperidin-1-yl)sulfonyl)cyclobutane-carboxylic Acid], the 50% effective concentration (EC50) in the data set with HBV (setting [2]) is 192 nM. In data set [1], this compound registered a CC50 at 6 days of over 100000 nM.
Regarding `COC(=O)C1=C(C23CC(NS(=O)(=O)c4cccc(C(=O)O)c4)(C2)C3)NC(c2nccs2)=NC1c1ccc(F)cc1Cl` (stereo not shown) [Compound 208B, 3-(N-(3-(6-(2-Chloro-4-fluorophenyl)-5-(methoxycarbonyl)-2-(thiazol-2-yl)-3,6-dihydropyrimidin-4-yl)bicyclo[1.1.1]pentan-1-yl)sulfamoyl)benzoic acid], the 50% effective concentration (EC50) in the data set with HBV (setting [2]) was determined as 280 nM. Further, in data set [1], the cytotoxic concentration (CC50) at 6 days was over 100000 nM.

By EC50 is commonly meant the concentration needed to bring the measured effect to its halfway point. As usually defined, the CC50 is the concentration giving 50% cytotoxicity. A low value points to greater toxicity to the cells.
